Assay results as given in US20260092179A1, “GENETICALLY MODIFIED HOST CELLS PRODUCING VIOLACEIN, ANALOGUES, AND DERIVATIVES THEREOF” (OCTARINE BIO APS, priority 2022, published 2026).

Tests used:
[1] = system: S. cerevisiae; assay: Cultivation of engineered S. cerevisiae production strains (titer of each metabolite, final OD600, product toxicity); conditions: intracellular accumulation; growth rate and final OD600
Procedure: Genetically engineered yeast strains were pre-cultured in 500 μL or 5 mL of liquid Delft minimal media (Table 10) with 20 g/L glucose and relevant amino acid supplements for 48 h at 30° C. and 280 rpm in 2 mL microtiter plates with air-permeable sealing or 12 mL cultivation tubes. Subsequently, 10 μL or 1 mL of yeast preculture was transferred to 490 μL or 49 mL of Delft minimal media with 20 g/L glucose and relevant amino acid supplements and cultivated for 72 h at 30° C. and 280 rpm in either a 2 mL microtiter plate with air-permeable sealing, or a 200 mL shakeflask. After cultivation, extracellular metabolites were extracted by mixing whole cell broth 1:1 with 100% methanol, vortexing thoroughly and centrifuging at 4000×g for 5 min. […]
In some cases, where a non-ionic surfactant was added to the cultivation media, extraction of extracellular metabolites was done by centrifuging the entire culture broth at 4000×g for 5 min to separate the culture into 3 phases, a biomass “pellet” a dilute surfactant phase, and a violacein or violacein derivative concentrated surfactant phase. […] Where possible, authentic analytical standards were used for quantification. […] Yeast cells were pelleted by centrifugation at 11.000×G for 5 min., and the supernatant was recovered and analyzed by UHPLC or LC-MS/MS. […]

[2] = system: S. cerevisiae SC-144
[3] = Free radical scavenging ability of dyed Nylon 6,6 fabric (DPPH); type: biochemical; conditions: dyed Nylon 6,6 fabric strip
Procedure: Violacein is reported as being a potent antioxidant able to effectively scavenge free radicals. […] To test this, 1.5×1.5 cm dyed Nylon 6,6 fabric strips were incubated in the dark at room temperature for 1 h in 5 mL of a 5×10^−5 M DPPH free radical solution in 100% ethanol. Undyed Nylon 6,6 fabric strips were included as a negative control. After 1 h absorbance was measured at 517 nm and % scavenging ability calculated as above.

[4] = UV absorption capability (absorbance maxima, UV-A, UV-B, UV-C absorption) by HPLC; type: physicochemical
Procedure: The software Agilent Openlab CDS Chemstation Rev.
Violacein is reported as being a potent UV absorbent able to effectively absorb UV radiation, however, much less is known about the other violacein derivatives. To investigate the potential of using violacein and violacein derivatives as UV inhibitors and to potentially impart UV protection to fabrics, the UV absorption spectra of each compound was analyzed by HPLC and the total absorption capability at each of the most relevant UV wavelengths quantified.
For the quantification of UV absorption capacity of the compound of interest, a chromatographic separation on the F5 column and a gradient of water/acetonitrile containing 0.05% formic acid was run according to Example 5). […] The compounds were quantified based on the signal at 230 nm, using calibration curves of authentic analytical standards.
The UV absorption capacity is represented in mAU.min/mM. UV-A, UV-B and UV-C represent the most relevant regions where UV protection is required. UV-C is the most harmful type of UV radiation and can be generated by inorganic sources. UV-B radiation predominantly comes from the suns rays and is responsible for sun burn. UV-A radiation is also derived predominantly from the suns rays, and while UV-A radiation is less harmful than UV-B or UV-C but is much more prevalent.

[5] = system: S. cerevisiae S228c; assay: Antimicrobial activity of dyed Nylon 6,6 fabric: final OD600 and % inhibition; type: cell-based
Procedure: (§1) Violacein is reported as being a potent antibiotic, capable of inhibiting the growth of a wide range of microbial kingdoms including bacteria, yeast, fungi, viruses, protozoa and nematode. […] To test this, overnight cultures of wild-type E. coli DH5a and S. cerevisiae S228c strains were diluted in 5 mL of cultivation media (LB for E. coli, minimal media for S. cerevisiae) to a starting OD600 of 0.1. 1.5×1.5 cm dyed Nylon 6,6 fabric strips were sterilized by submerging in 75% ethanol for 15 mins and air drying in a laminar air flow hood before adding to each culture (with undyed Nylon 6,6 fabric as a negative control). […] This experiment provides evidence that all violacein derivatives display antimicrobial properties.

[6] = system: E. coli DH5a; assay: as above; type: cell-based
Procedure: as §1

[7] = Solubility, stability (heat, UV) and colour of violacein and proviolacein glycosides in aqueous solution; type: physicochemical
Text: In this experiment, qualitative assessments of the solubility, stability and colour of glycosylated violacein and proviolacein were made. The first notable observation was that after the scale-up glycosylation reaction the aqueous phase of the reaction mix was purple (for violacein) and blue (for proviolacein). […] While its well known that glycosylation greatly improves the water solubility of molecules, the attachment of a sugar group typically changes the physiochemical properties of the molecule. In the case of coloured compounds, this typically eliminates their colour. The observation here that glycosylation results in a derivative that retains the original colour is both surprising and commercially useful for use in aqueous products e.g. beverages. To test the stability of violacein and proviolacein glycosides in aqueous solution the solutions were exposed to heat (incubated at 80° c. for 6 h) and UV (incubated in a UV hood for 6 h). HPLC analysis before after each test was used to measure the amount that had degraded during exposure. […] (approx. 0.1% lost during exposure).

N=C(Cc1c[nH]c2ccccc12)C(=O)O [IPA imine, Indole 3-pyruvic acid imine]
toxicity to the yeast production host [1]: not toxic

CCCCCCCCCCCCCC(=O)OC(C)C [isopropyl myristate]
toxicity of in situ extractant to S. cerevisiae [2]: non-toxic

O=C1N=C(c2c[nH]c3ccccc23)C=C1c1c[nH]c2ccccc12 [prodeoxyviolacein]
OD517 ([3]; 1 h in the dark in 5×10^−5 M DPPH in 100% ethanol): 1.99
Scavenging ability % ([3]; 1 h in the dark in 5×10^−5 M DPPH, vs undyed control): 12.28%
UV absorption capability in the UV-B region ([4]; 305 nm): particularly high
Total UV absorption UV C (245 nm) ([4]; AUC of HPLC peak at 245 nm per mM): 3516.1 (mAU · min)/mM
Total UV absorption UV B (305 nm) ([4]; AUC of HPLC peak at 305 nm per mM): 3778.8 (mAU · min)/mM
Total UV absorption UV A (360 nm) ([4]; AUC of HPLC peak at 360 nm per mM): 0 (mAU · min)/mM
Final OD600 ([5]; S. cerevisiae cultured overnight at 30° c. with dyed Nylon 6,6 fabric strip, starting OD600 0.1): 4.70
% Inhibition ([5]; S. cerevisiae, dyed Nylon 6,6 fabric vs undyed fabric control): 12.35%
Final OD600 ([6]; E. coli cultured overnight at 30° c. with dyed Nylon 6,6 fabric strip, starting OD600 0.1): 4.67
% Inhibition ([6]; E. coli, dyed Nylon 6,6 fabric vs undyed fabric control): 10.49%

O=C1NC(c2c[nH]c3ccc(OC4OC(CO)C(O)C(O)C4O)cc23)=CC1=C1C(=O)Nc2ccccc21 (stereo not shown) [violacein glucoside]
amount lost (degraded) during exposure to UV [7]: approx. 0.1%
amount lost (degraded) during exposure to heat [7]: approx. 0.1%
water solubility [7]: water soluble

(1,1,3,3-Tetramethylbutyl)phenyl-polyethylene glycol, Polyethylene glycol tert-octylphenyl ether [Triton X-114]
toxicity of in situ extractant to S. cerevisiae [2]: non-toxic
